Experimental data reported in patent publication US20080260876A1, “Garlic Extract Compositions, Uses And Preparations Thereof” (priority 2005, published 2008).

Key:
[1] = test system: Podosphaera xanthii (syn. Sphaerotheca fuliginea); test: Foliar spray on powdery mildew-infected cucumber plants; settings: for Percentage of reduction of cucumber powdery mildew: Table 5, 1/500 (w/v) in water
Procedure: Compositions 1 to 4 (Table 1) were applied by foliar spray 7 to 10 days after the inoculation of cucumber plants with powdery mildew spores (infected with 3-4×10^4 spores/mL of Podosphaera xanthii (syn. Sphaerotheca fuliginea)).
Each composition was sprayed once on cucumber leaves and disease assessment was performed after 3, 6, 8 and 12 days. […] For each composition, the assay was repeated three times and the results illustrated in Table 2 represent the average of these three assays.
As previously indicated, some garlic-based compositions are described in U.S. Pat. No. 6,231,865. Particular attention is paid to Samples 1 to 4 disclosed in column 2 of this document.

[2] = test system: Oidium neolycopersici; test: Semi-commercial greenhouse trial, tomato powdery mildew; assay type: in vivo
Procedure: Surface-sterilized tomato seeds (cv. Trust) were sown in rock wool cubes and fertilized daily with a standard nutrient solution. Seedlings were grown for 4 wk on a greenhouse bench at 21-24° C. with a 16 h photoperiod and transplanted (at the early flower stage) into rook wool in 13.5 L plastic bags perforated on the upper face in order to insert two rock wool cubes per bag. Plants at the 12-15 leaf stage were inoculated by rubbing a piece of tomato leaf heavily infected by Oidium neolycopersici onto leaf 7. At the onset of the first powdery mildew colonies (after 7-10 days), plants were sprayed with each formulation or with sulphur (the currently applied fungicide in tomato greenhouses) while controls were sprayed with water. The treatments were arranged in a randomized complete block design with 6 plants per treatment and three replications. All treatments with the garlic compositions were repeated once a week.
The treatments included: 1) Dehydrated garlic extracts-chitosan lactate (composition 1); 2) Dehydrated garlic extracts alone (composition 2); 3) chitosan lactate alone (composition 3); 4) sulphur; 5) water; and 6) water+vegetable oil (composition 4).
Disease severity was assessed three and six days after each treatment and evaluated as percentage of leaf area covered by powdery mildew. The assessments were made on a “low” leaf level (about leaf 3), a “middle” leaf level (leaves 6 and 9) and a “high” leaf level (about leaf 12) on three leaves for each level. For each treatment, […] yield was evaluated on 3 plants per replication. Data were analyzed by analysis of variance using the SAS procedure (SAS Inst., Inc., Cary, N.C.). The LSMEANS option was used to generate the probability of difference between all the variables in the study. Single degrees of freedom orthogonal contrasts were used to compare effects of the composition vs. chitosan lactate alone, the composition vs. water or water and oil, and the composition vs. sulphur. It is of note that powdery mildew on tomato is much less aggressive than it is on cucumber.

[3] = 3 plants of tomato, cv. Trust, 14 weeks after harvest

Structure (SMILES) | Percentage of reduction of cucumber powdery mildew ([1]; 3 days) | Percentage of reduction of cucumber powdery mildew ([1]; 6 days) | Percentage of reduction of cucumber powdery mildew ([1]; 8 days) | Percentage of reduction of cucumber powdery mildew ([1]; 12 days) | Phytotoxicity on cucumber plants ([1]; days following the application) | Average fruit weight, class 1 [2, 3] | Total fruit yield, class 1 [2, 3] | Total number of fruits, class 1 [2, 3] | Disease incidence after 14 weeks (% of infection) ([2]; percentage of leaf area covered by powdery mildew, tomato cv. Trust) | Reduction of the incidence of powdery mildew in tomato (disease control) ([2]; tomato greenhouse trial)
CCCCCCCCCCCCOS(=O)(=O)[O-].[Na+] [Sodium dodecyl sulfate] | 100% | 100% | 100% | 95% | phytoxicity developed | – | – | – | – | –
S1SSSSSSS1 [Sulphur] | – | – | – | – | – | 164 ± 3 g | 16.3 ± 1.1 Kg/m^2 | 100 ± 5.0 tomatos/m^2 | 0.28 ± 0.08 % of infection | ~100%
